From article PMC12652222 (International Journal of Molecular Sciences, 2025)
Several values for one entry are separate records, joined by “and”; a condition that tells them apart may be missing. Identical values can stand only once.

Columns and labels:
[1] = Nitric oxide (NO) radical scavenging; format: biochemical; conditions: mean ± SE, n = 3; for NO (%): inhibition % at 20 µg/mL
Experimental: (§1) The antioxidant activity was assessed using the iron reducing power (IRP) and the total antioxidant capacity (TAC). Ascorbic acid served as a standard to calculate the inhibition percentages (%) and the median inhibitory concentration (IC50) of each tested compound against the following radicals: nitric oxide (NO), hydroxyl (OH), hydrogen peroxide (H2O2), ABTS [79], and DPPH [80].

[2] = Hydroxyl (OH) radical scavenging; format: biochemical; conditions: mean ± SE, n = 3; for OH (%): inhibition % at 20 µg/mL
Experimental: as §1

[3] = Iron-reducing power (IRP); format: biochemical; conditions: mean ± SE, n = 3
Experimental: as §1

DPPH radical scavenging = format: biochemical; conditions: mean ± SE, n = 3; for DPPH (%): inhibition % at 20 µg/mL
Experimental: as §1

[4] = Total antioxidant capacity (TAC); format: biochemical; conditions: mean ± SE, n = 3
Experimental: as §1

ABTS radical scavenging = format: biochemical; conditions: mean ± SE, n = 3; for ABTS (%): inhibition % at 20 µg/mL
Experimental: as §1

[5] = Hydrogen peroxide (H2O2) scavenging; format: biochemical; conditions: mean ± SE, n = 3; for H2O2 (%): inhibition % at 20 µg/mL
Experimental: as §1

α-glucosidase = assay: α-Glucosidase inhibition; format: biochemical; conditions: for inhibition of α-glucosidase: at 20 µg/mL
Experimental: (§2) The IC50 and inhibition percentages (Inhib. %) of the enzymes α-amylase and α-glucosidase were calculated.

proteinase enzyme = assay: Proteinase inhibition (anti-arthritic); format: biochemical; design: Proteinase Inhibition (%): concentration or dose not given beside the values; conditions: mean ± SE, n = 3
Experimental: (§3) Anti-arthritic activity was evaluated using diclofenac sodium as the reference drug. The inhibition percentage and IC50 were determined for protein denaturation and the proteinase enzyme.

[6] = molecular target: acetylcholinesterase (AChE) (Homo sapiens, UniProt P22303); assay: biochemical; conditions: mean ± SE, n = 3; for IC50: read-out: AChE IC50 (µg/mL) (converted)
acetylcholinesterase (AChE), sequence (P22303 32-614, species assumed): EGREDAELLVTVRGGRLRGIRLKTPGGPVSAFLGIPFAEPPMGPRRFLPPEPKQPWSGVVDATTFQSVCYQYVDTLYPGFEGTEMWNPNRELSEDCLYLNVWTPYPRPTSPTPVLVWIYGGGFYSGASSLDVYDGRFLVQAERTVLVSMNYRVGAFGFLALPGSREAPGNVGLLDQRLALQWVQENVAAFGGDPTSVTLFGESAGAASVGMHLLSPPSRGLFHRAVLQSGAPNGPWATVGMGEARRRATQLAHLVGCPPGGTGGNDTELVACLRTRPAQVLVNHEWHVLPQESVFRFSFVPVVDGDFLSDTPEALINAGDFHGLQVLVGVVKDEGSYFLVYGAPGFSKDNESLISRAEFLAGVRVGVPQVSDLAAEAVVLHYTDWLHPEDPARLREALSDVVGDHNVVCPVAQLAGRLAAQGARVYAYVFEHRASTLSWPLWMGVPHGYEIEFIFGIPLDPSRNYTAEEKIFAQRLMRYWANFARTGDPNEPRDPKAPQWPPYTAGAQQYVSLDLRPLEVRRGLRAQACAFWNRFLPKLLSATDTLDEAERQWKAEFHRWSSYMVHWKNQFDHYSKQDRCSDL
Experimental: The inhibition percentage and IC50 of the acetylcholinesterase (AChE) enzyme were measured using the Ellman method.

α-amylase = molecular target: T1, α-amylase (Homo sapiens, UniProt P04746); assay: α-Amylase inhibition; format: biochemical; conditions: for inhibition at 20 µg/mL: read-out: α-Amylase Inhibition (%)
T1 sequence (P04746 16-511): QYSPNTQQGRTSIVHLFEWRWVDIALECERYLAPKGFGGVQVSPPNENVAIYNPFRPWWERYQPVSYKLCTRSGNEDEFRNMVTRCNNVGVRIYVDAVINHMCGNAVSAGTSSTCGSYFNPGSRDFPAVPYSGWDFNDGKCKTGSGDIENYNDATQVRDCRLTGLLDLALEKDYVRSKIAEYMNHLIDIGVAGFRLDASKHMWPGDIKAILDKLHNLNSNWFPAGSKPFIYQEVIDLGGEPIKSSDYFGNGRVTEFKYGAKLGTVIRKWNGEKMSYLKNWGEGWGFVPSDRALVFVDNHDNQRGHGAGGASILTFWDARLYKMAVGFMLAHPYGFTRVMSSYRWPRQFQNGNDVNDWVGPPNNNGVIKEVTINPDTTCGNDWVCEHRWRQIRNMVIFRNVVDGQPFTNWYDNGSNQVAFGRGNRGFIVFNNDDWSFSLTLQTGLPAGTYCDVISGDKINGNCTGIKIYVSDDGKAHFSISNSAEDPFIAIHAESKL
Experimental: as §2

protein denaturation = assay: Protein denaturation inhibition (anti-arthritic); format: biochemical; design: concentration or dose not given beside the values; conditions: mean ± SE, n = 3
Experimental: as §3

O=C1O[C@H]([C@@H](O)CO)C(O)=C1O [ascorbic acid, reference compound]
NO radical scavenging IC50 [1]: 6.18 µg/mL | OH radical scavenging IC50 [2]: 8.31 µg/mL | IRP [3]: 67.49 µg/mL | DPPH radical scavenging IC50 (DPPH radical scavenging): 5.45 µg/mL | TAC (mg Gallic Acid/g) [4]: 78.44 mg Gallic Acid/g | ABTS radical scavenging IC50 (ABTS radical scavenging): 4.35 µg/mL | H2O2 scavenging IC50 [5]: 9.24 µg/mL

O=c1/c(=C\[C@@H](O)[C@@H](O)[C@H](O)[C@H](O)CO)sc2nc3sc4c(c3c(=O)n12)CCC4 [7b, (E)-2-((2R,3R,4R,5R)-2,3,4,5,6-pentahydroxyhexylidene)-7,8-dihydro-5H,6H-cyclopenta [4,5]thieno [2,3-d]thiazolo [3,2-a]pyrimidine-3,5(2H)-dione]
NO (%) [1]: 12.44 ± 0.25% | NO radical scavenging IC50 [1]: 32.58 ± 0.96 µg/mL | OH (%) [2]: 10.82 ± 0.21% | OH radical scavenging IC50 [2]: 43.75 ± 0.52 µg/mL | IRP [3]: 14.44 ± 0.25 µg/mL | DPPH (%) (DPPH radical scavenging): 18.19 ± 0.25% | DPPH radical scavenging IC50 (DPPH radical scavenging): 21.36 ± 0.44 µg/mL | α-Glucosidase IC50 (α-glucosidase): 19.96 ± 0.34 µg/mL | TAC (mg Gallic Acid/g) [4]: 21.59 ± 0.25 mg Gallic Acid/g | Proteinase IC50 (proteinase enzyme): 42.61 ± 0.37 µg/mL | Proteinase Inhibition (%) (proteinase enzyme): 10.89 ± 0.20% | ABTS (%) (ABTS radical scavenging): 21.34 ± 0.25% | ABTS radical scavenging IC50 (ABTS radical scavenging): 15.17 ± 0.15 µg/mL | H2O2 (%) [5]: 12.12 ± 0.24% | H2O2 scavenging IC50 [5]: 48.67 ± 0.85 µg/mL | inhibition at 20 µg/mL [6]: 5.14 ± 0.16% | IC50 [6]: 131 µM | inhibition at 20 µg/mL (α-amylase): 17.3 ± 0.24% | Protein Denaturation Inhibition (%) (protein denaturation): 15.06 ± 0.20%

O=c1/c(=C\[C@@H](O)[C@H](O)[C@H](O)CO)sc2nc3sc4c(c3c(=O)n12)CCC4 [7e, (E)-2-((2R,3S,4R)-2,3,4,5-tetrahydroxypentylidene)-7,8-dihydro-5H,6H-cyclopenta [4,5]thieno [2,3-d]thiazolo [3,2-a]-pyrimidine-3,5(2H)-dione]
NO (%) [1]: 9.62 ± 0.21% | NO radical scavenging IC50 [1]: 42.12 ± 1.33 µg/mL | OH (%) [2]: 8.37 ± 0.19% | OH radical scavenging IC50 [2]: 56.57 ± 0.81 µg/mL | IRP [3]: 11.62 ± 0.21 µg/mL | DPPH (%) (DPPH radical scavenging): 15.37 ± 0.21% | DPPH radical scavenging IC50 (DPPH radical scavenging): 25.27 ± 0.54 µg/mL | α-Glucosidase IC50 (α-glucosidase): 26.75 ± 0.52 µg/mL | TAC (mg Gallic Acid/g) [4]: 18.77 ± 0.21 mg Gallic Acid/g | Proteinase IC50 (proteinase enzyme): 54.22 ± 0.58 µg/mL | Proteinase Inhibition (%) (proteinase enzyme): 8.56 ± 0.18% | ABTS (%) (ABTS radical scavenging): 18.52 ± 0.21% | ABTS radical scavenging IC50 (ABTS radical scavenging): 17.47 ± 0.17 µg/mL | H2O2 (%) [5]: 9.37 ± 0.21% | H2O2 scavenging IC50 [5]: 62.92 ± 1.25 µg/mL | inhibition at 20 µg/mL [6]: 4.11 ± 0.13% | IC50 [6]: 176 µM | inhibition at 20 µg/mL (α-amylase): 14.6 ± 0.2% | Protein Denaturation Inhibition (%) (protein denaturation): 12.73 ± 0.18%

O=c1/c(=C\[C@H](O)[C@@H](O)[C@@H](O)[C@H](O)CO)sc2nc3sc4c(c3c(=O)n12)CCCC4 [8c, (E)-2-((2S,3R,4S,5R)-2,3,4,5,6-pentahydroxyhexylidene)-6,7,8,9-tetrahydro-5H-benzo [4,5]-thieno [2,3-d]thiazolo [3,2-a]-pyrimidine-3,5(2H)-dione]
NO (%) [1]: 6.75 ± 0.20% | NO radical scavenging IC50 [1]: 60.02 ± 1.12 µg/mL | OH (%) [2]: 5.87 ± 0.17% | OH radical scavenging IC50 [2]: 80.74 ± 2.84 µg/mL | IRP [3]: 8.75 ± 0.20 µg/mL | DPPH (%) (DPPH radical scavenging): 12.50 ± 0.20% | DPPH radical scavenging IC50 (DPPH radical scavenging): 31.07 ± 0.34 µg/mL | α-Glucosidase IC50 (α-glucosidase): 41.00 ± 1.33 µg/mL | TAC (mg Gallic Acid/g) [4]: 15.90 ± 0.20 mg Gallic Acid/g | Proteinase IC50 (proteinase enzyme): 75.16 ± 2.30 µg/mL | Proteinase Inhibition (%) (proteinase enzyme): 6.18 ± 0.17% | ABTS (%) (ABTS radical scavenging): 15.65 ± 0.20% | ABTS radical scavenging IC50 (ABTS radical scavenging): 20.68 ± 0.24 µg/mL | H2O2 (%) [5]: 6.58 ± 0.20% | H2O2 scavenging IC50 [5]: 89.75 ± 2.32 µg/mL | inhibition at 20 µg/mL [6]: 5.93 ± 0.19% | IC50 [6]: 110 µM | inhibition at 20 µg/mL (α-amylase): 11.9 ± 0.19% | Protein Denaturation Inhibition (%) (protein denaturation): 10.35 ± 0.17%

O=c1/c(=C\[C@@H](O)[C@H](O)[C@H](O)CO)sc2nc3sc4c(c3c(=O)n12)CCCC4 [8e, (E)-2-((2R,3S,4R)-2,3,4,5-tetrahydroxypentylidene)-6,7,8,9-tetrahydro-5H-benzo [4,5]thieno [2,3-d]thiazolo [3,2-a]pyrimidine-3,5(2H)-dione]
NO radical scavenging IC50 [1]: 6.80 ± 0.16 µg/mL | OH radical scavenging IC50 [2]: 9.14 ± 0.05 µg/mL | IRP [3]: 61.54 µg/mL and 61.54 ± 0.79 µg/mL | DPPH radical scavenging IC50 (DPPH radical scavenging): 5.95 ± 0.12 µg/mL | α-Glucosidase IC50 (α-glucosidase): 3.81 ± 0.05 µg/mL | inhibition of α-glucosidase (α-glucosidase): 55.43 ± 0.75% | TAC (mg Gallic Acid/g) [4]: 68.69 mg Gallic Acid/g and 68.69 ± 0.79 mg Gallic Acid/g | Proteinase IC50 (proteinase enzyme): 9.08 ± 0.11 µg/mL | Proteinase Inhibition (%) (proteinase enzyme): 50.90 ± 0.65% | ABTS radical scavenging IC50 (ABTS radical scavenging): 4.73 ± 0.05 µg/mL | H2O2 scavenging IC50 [5]: 10.17 ± 0.12 µg/mL | inhibition at 20 µg/mL [6]: 5.24 ± 0.17% | IC50 [6]: 134 µM | IC50 (α-amylase): 16.3 µM | inhibition at 20 µg/mL (α-amylase): 62.2 ± 0.75% | Protein Denaturation Inhibition (%) (protein denaturation): 54.07 ± 0.65%

C[C@H]1O[C@H](O[C@H]2[C@H](O)[C@@H](O)[C@@H](O[C@H]3[C@H](O)[C@@H](O)C(O)O[C@@H]3CO)O[C@@H]2CO)[C@H](O)[C@@H](O)[C@@H]1N[C@H]1C=C(CO)[C@@H](O)[C@H](O)[C@H]1O (some centres unmarked) [Acarbose, reference compound]
inhibition of α-glucosidase (α-glucosidase): 63.10 ± 0.16% | inhibition at 20 µg/mL (α-amylase): 69.85 ± 0.16%

O=c1/c(=C\[C@H](O)[C@@H](O)[C@H](O)[C@H](O)CO)sc2nc3sc4c(c3c(=O)n12)CCCC4 [8a, (E)-2-((2S,3R,4R,5R)-2,3,4,5,6-pentahydroxyhexylidene)-6,7,8,9-tetrahydro-5H-benzo [4,5]thieno [2,3-d]thiazolo [3,2-a]-pyrimidine-3,5(2H)-dione]
NO (%) [1]: 4.80 ± 0.18% | NO radical scavenging IC50 [1]: 84.51 ± 2.12 µg/mL | OH (%) [2]: 4.17 ± 0.15% | OH radical scavenging IC50 [2]: 113.71 ± 4.73 µg/mL | IRP [3]: 6.80 ± 0.18 µg/mL | DPPH (%) (DPPH radical scavenging): 10.55 ± 0.18% | DPPH radical scavenging IC50 (DPPH radical scavenging): 36.82 ± 0.42 µg/mL | α-Glucosidase IC50 (α-glucosidase): 64.26 ± 2.84 µg/mL | TAC (mg Gallic Acid/g) [4]: 13.95 ± 0.18 mg Gallic Acid/g | Proteinase IC50 (proteinase enzyme): 101.84 ± 3.59 µg/mL | Proteinase Inhibition (%) (proteinase enzyme): 4.57 ± 0.15% | ABTS (%) (ABTS radical scavenging): 13.70 ± 0.18% | ABTS radical scavenging IC50 (ABTS radical scavenging): 23.63 ± 0.28 µg/mL | H2O2 (%) [5]: 4.67 ± 0.17% | H2O2 scavenging IC50 [5]: 126.37 ± 4.09 µg/mL | inhibition at 20 µg/mL [6]: 5.81 ± 0.18% | IC50 [6]: 112 µM | inhibition at 20 µg/mL (α-amylase): 10.1 ± 0.17% | Protein Denaturation Inhibition (%) (protein denaturation): 8.74 ± 0.15%

O=C(O)Cc1ccccc1Nc1c(Cl)cccc1Cl [Diclofenac sodium, reference compound]
Proteinase IC50 (proteinase enzyme): 8.20 ± 0.06 µg/mL | Proteinase Inhibition (%) (proteinase enzyme): 56.57 ± 0.14% | Protein Denaturation Inhibition (%) (protein denaturation): 60.74 ± 0.14%
